Data as given in US20230183703A1, “COMPOSITIONS AND METHODS FOR TREATING AND DETECTING CORONAVIRUS INFECTION” (HOWARD UNIVERSITY, priority 2020, published 2023).

Tested on: SARS-CoV-2
Type: cell-based
Settings: result in words

Substance	inhibition of SARS-CoV-2 proliferation in Vero-76 cells
A25: 5′-GGAGAATGACA(25)-3′, SEQ ID NO: 1: 10-nucleotide linker attached to 5′-end of a 25-mer poly(dA) sequence (DNA GGAGAATGACAAAAAAAAAAAAAAAAAAAAAAAAA; further chemistry not given here)	markedly inhibited
A25L: SEQ ID NO: 2: 10-nucleotide linker GGAGAATGAC sandwiched between two copies of a 25-mer poly(dA) sequence (DNA AAAAAAAAAAAAAAAAAAAAAAAAAGGAGAATGACAAAAAAAAAAAAAAAAAAAAAAAAA; further chemistry not given here)	markedly inhibited
